# Test results taken from a melting point compilation (Tetko et al.; mined from patent text by program, amines drawn as free bases though some values may be those of a salt).
row,SMILES,melting point
1,CN1c2cccc3cccc(c23)N(CCCN2CC=C(c3ccccc3)CC2)S1(=O)=O,146 °C
2,O=c1[nH]ncc2c1c(O)nc1ccccc12,> 350 °C
3,COc1ccc(S(=O)(=O)C(C)(CCCCN2C(=O)c3ccccc3C2=O)C(=O)NO)cc1 (stereo unspecified),146 to 148 °C
4,CN(C)CCCOc1cnc(-c2cccc(CO)c2)nc1,95 to 97 °C
5,COC(=O)c1ccc(Cl)cc1O,27 to 30 °C
6,O=C(O)C=Nc1cccc(F)c1C(=O)O,169 °C
7,CC(=O)Nc1ccc(O)cc1F,124 °C
8,Cn1c(CO)nc2ccc(Cl)nc21,204 to 210 °C
9,Cc1cc2cccc(-c3ccc(Cl)cc3Cl)n2n1,86.9 to 90 °C
10,Cc1ccc(N2C(=O)c3nccnc3C2=O)nc1,240 °C
11,Cc1ccsc1C(Cc1ccccc1N)N(C)C (stereo unspecified),75 to 77 °C
12,O=S(=O)(Nc1cccc(CCOCc2ccc(-c3ccc(Cl)cc3)cc2F)c1)C(F)(F)F,99 to 101 °C
13,CC(C)(C)OC(=O)C(CN)CC(=O)N1CCNCC1 (stereo unspecified),142 °C
14,COc1cc2c(cc1Br)C(=CNc1ccc(CN3CCCCC3)cc1)C(=O)NC2=O,264 to 267 °C
15,c1coc(-c2cc3[nH]ccn3n2)c1,186 to 188 °C
16,O=c1c(N2CCNCC2)nccn1CCOc1cc(F)cc(F)c1,119 to 121 °C
17,COc1ccc2nc(-c3ccc(OC)c(F)c3)c(Cl)c(Br)c2c1,197 to 199 °C
18,CCOC(=O)N(c1ccccc1)c1cc(Cl)ccc1N=NC(NC(=O)CCl)(C(=O)OCC)C(=O)OCC,105 to 110 °C
19,O=C(Nc1ccc2ccc(Cl)nc2n1)c1cnccn1,308 °C
20,CC1Oc2ccc(Cn3ccnc3)cc2NC1=O (stereo unspecified),219 to 222 °C
21,c1ccc(C2CNc3ccccc3O2)cc1 (stereo unspecified),113 to 116 °C
22,Fc1ccc2c(CN3CC=C(CCc4ccccc4)CC3)c[nH]c2c1,150 to 152 °C
23,Cc1cccc(NC(=O)NC2N=C(c3ccccc3F)c3ccccc3N(Cc3cc4ccccc4o3)C2=O)c1 (racemic),213 to 214 °C
24,O=C(O)CCC(CCC(=O)O)(CCC(=O)O)C(=O)c1ccc(Cl)cc1,135 to 137 °C
25,O=C1NCCSC1Cc1ccc(OCc2ccccc2)cc1 (stereo unspecified),126 to 128 °C
26,c1ccc2c(c1)C[C@H]1CSC(=Nc3csc4cnccc34)N1C2,180 °C

row,SMILES,melting point
1,CC(C)(C)C(=O)c1c[nH]c2ncc(-n3ccc4ccccc43)nc12,205 to 207 °C
2,O=C(O)CCCCC(=NOCc1ccc(OCc2noc(-c3ccccc3)n2)cc1)c1ccccc1,88 to 89 °C
3,O=C(CS(=O)(=O)c1ccccc1)c1ccnc(Cl)c1,124 to 126 °C
4,O=S(=O)(Cc1ccccc1)NCCCCOc1ccc(-n2ccnc2)cc1,123 to 124 °C
5,O=C(O)c1nc(Cl)cc([N+](=O)[O-])c1Cl,192 to 193 °C
6,COc1ccc(CN2C(=O)CC(C)(C)c3cc(Br)ccc32)cc1,118 to 119 °C
7,CCCC(Nc1ccc(OCc2ccccc2)cc1)C(=O)OCC (stereo unspecified),68 °C
8,CCCN1C(=O)N2C[C@@H](Cc3ccccc3)N=C2c2c1nc(C=O)n2Cc1ccccc1,184 to 185 °C
9,O=C1CCC2=C1C(Cc1ccccc1)(Cc1ccccc1)c1ccccc12,155 °C
10,CCOC(=O)N1CCc2nc3ccccc3c(O)c2CC1,252 °C
11,CC(=O)NS(=O)(=O)c1ccc(-c2c(Cl)nc(C(F)(F)F)nc2-c2ccc(S(C)(=O)=O)cc2)cc1,230 to 235 °C
12,O=C1C2C(C(=O)N1Cc1ccccc1)C2[N+](=O)[O-] (stereo unspecified),108 to 109 °C
13,O=C(O)C(CCN1C(=O)c2ccccc2C1=O)Oc1c(Br)cc(-c2ccc(-c3c(Cc4ccccc4)sc4ccccc34)cc2)cc1Br (stereo unspecified),113 to 115 °C
14,COc1ccc(C(=O)Nc2ccc(-c3ccc4c(c3)OCO4)cc2)cc1CCCN(C)C,190 to 192 °C
15,Fc1ccc2c(CN3CCN(c4ccc(Cl)cc4)CC3)n[nH]c2c1F,167 to 168 °C
16,COc1cc2nc(N3CCN(C(=O)C4CC4)CC3)nc(N)c2cc1OC,284 to 286 °C
17,Cc1cc(OS(=O)(=O)c2c(Cl)cccc2Cl)cc2c(C3CCN(C)CC3)c[nH]c12,179 °C
18,C#CCc1c(C)nc2c(OCc3ccccc3CO)cccn12,137 to 138 °C
19,NC(=O)OC(=O)C(Cl)(Cl)Cl,183 to 184 °C
20,COC(=O)c1ccc(C(=O)OC)c(S(=O)(=O)NC(C)(C)C)c1,132 to 134 °C
21,COC(=O)/C(=C/C=C/c1cc2ccccc2n1C)OC,93 to 94 °C
22,CCn1c(C(O)(c2cccc(C(F)(F)F)c2)c2cccc(C(F)(F)F)c2)nc(-c2ccncc2)c1-c1ccc(Cl)cc1,193 to 195 °C
23,COC(OC)c1cccc(NCc2ccccc2)c1,55 to 56 °C
24,CSc1nc2c(NCc3ccccc3)ncnc2n1C1OC(CO)C(O)C1O (stereo unspecified),81 to 84 °C
25,O=C(NCc1ccc(Cl)cc1)c1cn2c(CCCO)cc3cc(CN4CCOCC4)cc(c1=O)c32,171 to 174 °C
